Measurements as given in US12188937B2, “Peptoid compound and detection chip coupled with peptoid compound on the surface” (BEIJING BOE TECHNOLOGY DEVELOPMENT CO., LTD., priority 2019, dated 2025).

Target: T1, EpCAM protein (Homo sapiens, UniProt P16422)
T1 construct: purchased Sino Biological Inc
T1 sequence (P16422 24-314): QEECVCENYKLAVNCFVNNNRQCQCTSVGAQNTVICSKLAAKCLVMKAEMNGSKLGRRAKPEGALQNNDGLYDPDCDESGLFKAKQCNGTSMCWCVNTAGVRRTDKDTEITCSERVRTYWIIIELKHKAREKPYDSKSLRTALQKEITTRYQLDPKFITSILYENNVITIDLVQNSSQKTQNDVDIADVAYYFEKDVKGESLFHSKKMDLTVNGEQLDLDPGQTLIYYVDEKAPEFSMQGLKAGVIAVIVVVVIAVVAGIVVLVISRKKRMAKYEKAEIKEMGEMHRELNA
Assay: surface plasmon resonance imaging (SPRi) test of binding ability of chip-spotted peptoid to EpCAM protein
Conditions: EpCAM 5.68-91.2 nM in PBS, binding 300 s, dissociation 300 s, fitted with BIAevalution 4.1, read-out: equilibrium dissociation constant KD

`NCCCCNC(=O)CN(CCc1ccc(-c2ccccc2)cc1)C(=O)CN(CCC(=O)O)C(=O)CNCCc1ccccc1` [Formula II] gave a Kd of 18.7 nM.
